Assays:
A10 VSM cells = assay: [3H]thymidine incorporation (DNA synthesis) in A10 VSM cells; type: cell-based, rat
caspase-3 = assay: Caspase-3 activation (cleavage product) by Western blot in VSM cells; type: cell-based, rat; settings: Adriamycin experiment (FIG. 19b)
Method: FIGS. 19A and B depict how Caspase-3 is activated by antisense oligonucleotide to p21 but not early after radiation or Adriamycin, as described in Example III, infra. Confluent VSM cells were transfected with oligonucleotide in the concentration indicated, left in serum-containing media overnight, and exposed to (A) ionizing radiation (12 Gy) or (B) Adriamycin where indicated. 4 hours later, activation of caspase-3 was assessed by Western blotting. The arrowhead indicates the cleavage product of caspase-3 signifying its processing as an early step in apoptosis. Wortmannin (wort) is a positive control for apoptosis. […] The experiment shown is representative of two separate experiments.
(§1) Western blots: Cells were grown to confluence in 6 cm culture dishes and serum deprived. After transfection and or treatment with appropriate agonist, conditioned medium was removed and saved and the cells were washed with phosphate-buffered saline and lysed in lysis buffer. Both supernatant and cell lysate were normalized to the lysate protein concentrations and Western blotted as described (Weiss R H, et al. Am J Physiol 274:C1521-C1529, 1998).
In order to determine whether the potentiation of ionizing radiation and Adriamycin induced DNA synthesis inhibition by p21 antisense oligonucleotides is accompanied by apoptosis, caspase-3 activation in response to ionizing radiation was examined. Caspase-3 is an effector caspase whose activation (leading to apoptosis) results in a 20 kD cleavage product which can be assessed by Western blotting (McCarthy N J, Evan G I. Curr Top Dev Biol 36:259-278, 1998). This process is an early event in a cascade of reactions which ultimately leads to apoptosis, as is evident by the fact that inactivation of caspase-3 dramatically reduces apoptosis in several cell lines (Woo M, et al. Genes Dev 12:806-819, 1998).
VSM cells were transfected with antisense or control oligonucleotides overnight and then stimulated with ionizing radiation.

p21^Waf1/Cip1 [1] = assay: p21 protein level by Western blot in A10 VSM cells; type: cell-based, rat
Method: (§2) Western blots: Cells were grown to confluence in 6 cm culture dishes and serum deprived. After transfection and or treatment with appropriate agonist, the cells were washed with phosphate-buffered saline and lysed in lysis buffer and the supernatant was Western blotted as described (Weiss et al., 1998 Am. J. Physiol., 274, p. C1521-C1529).
To determine whether antisense transfection with p21^Waf1/Cip1 antisense oligonucleotides indeed decreases p21^Waf1/Cip1 protein levels, p21^Waf1/Cip1 levels after antisense transfection were examined employing the fact that PMA is a potent inducer of p21^Waf1/Cip1 (Huang et al., 1995 Proc. Natl. Acad. Sci. U.S.A., 92, p. 4793-4797; Michieli et al., 1994 Cancer Res., 54, p. 3391-3395). Since p21^Waf1/Cip1 protein levels were induced in VSM cells between 2 and 6 hours after PMA stimulation (FIG. 4), the p21^Waf1/Cip1 levels in transfected cells after similar times of PMA stimulation were examined. […] There was no effect of the p21^Waf1/Cip1 sense (SEQ. ID NO.:2) control oligodeoxynucleotide on cellular p21^Waf1/Cip1 levels (compare with FIG. 4).
To check for specificity of protein inhibition by the antisense p21^Waf1/Cip1 oligodeoxynucleotide (SEQ. ID NO.: 1), protein levels of p21^Waf1/Cip1 and p27^Kip1 after transfection with antisense p21^Waf1/Cip1 oligodeoxynucleotide (SEQ. ID NO.:1) were examined. In these experiments the ability of antisense oligodeoxynucleotides (SEQ. ID NO.:1) to inhibit maximally stimulated CKI expression (see FIG. 4) was assessed. The cells were stimulated with PMA for 4 hours at various times after overnight serum starvation.
as §1
To confirm that p21 levels were increased after exposure to ionizing radiation, and that the oligonucleotides inhibit this phenomenon in A10 cells, p21 protein levels under these conditions were assayed. […] With the exception of the initial decrease in p21 levels at ½ and 1 hours, the results with the control oligonucleotides were similar to that observed in non-transfected cells.
Adriamycin is a prototypical DNA damaging agent used in the treatment of a variety of cancers. The predominantly G2 arrest seen after Adriamycin treatment has been associated with an increase in p21 levels in some cell lines (Siu W Y, et al. FEBS Lett 461:299-305, 1999). In order to determine whether similar augmentation of p21 is seen in A10 VSM cells and whether the antisense p21 oligonucleotide is inhibiting this response, these cells were treated with Adriamycin either with or without first transfecting the cells with the antisense and control oligonucleotides. Confluent VSM cells were transfected with antisense oligonucleotide to p21 or random sequence control oligonucleotide as described above. After 24 hours, the cells were exposed to Adriamycin (500 ng/ml), lysed at the indicated times after exposure, and Western blotted with p21 antibody.
Using a random sequence phosphorothioate oligodeoxynucleotide (SEQ. ID NO.:3) as a control, the effect of the antisense oligodeoxynucleotide to p21 (400 nM) on p21 and α-actin protein expression in A10 VSM cells, was examined. The lysates, normalized for protein content, were Western blotted with either p21 or α-actin antibody.

p21^Waf1/Cip1 [2] = assay: PMA-induced p21 level by Western blot in A431 cells; type: cell-based, human; settings: 200 nM oligodeoxynucleotide, PMA 100 ng/ml up to 6 hours
Method: as §2, with “and Nuccitelli, 1992” for “et al., 1998 Am.”, “Biol. Chem., 267,” for “Physiol., 274,”, “5608-5613).” for “C1521-C1529).”
PMA is a potent inducer of p21^Waf1/Cip1 in a variety of different cell lines (Huang et al., 1995 Proc. Natl. Acad. Sci. US.A., 92, p. 4793-4797; Michieli et al., 1994 Cancer Res., 54, p. 3391-3395) and was employed to examine p21^Waf1/Cip1 levels after antisense transfection and confirm efficacy of translation to attenuate p21^Waf1/Cip1 levels. A431 cells were transfected with 200 nM antisense p21^Waf1/Cip1 (SEQ. ID NO.:1) or sense p21^Waf1/Cip1 oligodeoxynucleotide (SEQ. ID NO.:2). After overnight incubation in serum-free medium, the cells were stimulated with PMA (100 ng/ml) for the times indicated, lysed, and the lysates were Western blotted with p21^Waf1/Cip1 or α-actin antibody.

laminin = assay: Laminin production and secretion (immunoblot of lysate and conditioned media); type: cell-based, rat; settings: control oligodeoxynucleotide transfected cells, TGF-β higher doses
Method: as §1, with “and/or” for “and or”, “(Weiss, R. H.;” for “(Weiss R H,”, “Am. J. Physiol. 274: C1521-C1529;” for “Am J Physiol 274:C1521-C1529,”
The p21 influences on matrix protein secretion in VSM cells were determined. Levels of the matrix proteins laminin and fibronectin were examined in both TGF-β stimulated lysate and conditioned media of cells in which p21 expression had been attenuated. The cells were transfected with either antisense p21 (SEQ. ID NO.:1) (400 nM), or random sequence control (SEQ. ID NO.:3) (400 nM) oligodeoxynucleotide, and then stimulated with TGF-β at for 0.1 to 10 ng/ml for 4 hours. Conditioned media and cell lysate were collected, and both medium and lysate volumes were normalized for the protein content in total cell lysate to exclude any skewing of the data due to cell proliferation. The proteins were electrophoresed and immunoblotted with either fibronectin (after immunoprecipitation to eliminate extraneous bands which appeared in the absence of this procedure) or laminin antibody.

fibronectin = assay: Fibronectin production and secretion (immunoprecipitation/immunoblot); type: cell-based, rat; settings: VSM cells, TGF-β, maximal level in lysate at higher doses
Method: Immunoprecipitations: VSM cells were grown to confluence. After incubation under appropriate conditions, the cells were washed with ice-cold phosphate-buffered saline and immediately lysed in lysis buffer (20 mM Tris [pH7.5], 150 mM NaCl, 1 mM EDTA, 1 mM EGTA, 1% Triton X-100, 2.5 mM sodium pyrophosphate, 1 mM β-glycerolphosphate, 1 mM Na3VO4, 1 μg/ml Leupeptin, 1 mM PMSF) at 4° C. The cells were scraped off with a rubber spatula and the insoluble material removed by centrifuging at 10,000× g for 10 min at 4° C. Protein concentration was determined by A595, and lysates containing equal amounts of protein were incubated with […] anti-fibronectin antibody at 4° C. overnight. Protein A-Sepharose beads were added and the resulting mixture was incubated for an additional 2 hours at 4° C. The beads were centrifuged in a microfuge for 20 sec, and the pellet was washed 3 times with cold lysis buffer. The supernatant was decanted, gel loading buffer was added to the precipitate, and the solution was boiled for 5 min, and centrifuged. The supernatant was electrophoresed on a 7.5% SDS-polyacrylamide gel with equal volumes of sample per lane. The proteins were electrophoretically transferred to nitrocellulose and probed with fibronectin antibody.
The p21 influences on matrix protein secretion in VSM cells were determined. […]

A431 cells = assay: [3H]thymidine incorporation (DNA synthesis) in A431 cells; type: cell-based, human; settings: PMA 100 ng/ml
Method: FIG. 9A-D are bar graphs showing Antisense p21^Waf1/Cip1 oligodeoxynucleotide has no significant effect DNA synthesis in PMA-inhibitable A431 cells, as described in Example II, infra. […] A431 cells were placed in serum-free medium overnight and then stimulated with (A) PDGF-BB (30 ng/ml), (B) 10% serum-containing medium, or (C) PDGF-BB or PMA (100 ng/ml) for another 8 hours before [^3H]-thymidine was added for overnight incubation. (D) A10 VSM cells were transfected with sense and antisense p21^Waf1/Cip1 oligonucleotides as above and treated similarly to (B). DNA synthesis was assessed by [^3H]-thymidine incorporation and is expressed as mean ±s.e.m. of three wells per data point. The absolute counts differ between experiments due to different confluency of the cells. The experiments shown are representative of two separate experiments.
Cell culture and DNA synthesis: Cultures of A10 and A431 cells were obtained from American Type Culture Collection (Rockville Md), were maintained as described (Weiss et al. 1998, Am. J. Physiol. 274, C1521-C1529), and were used between passages 15 and 24 or 25 and 35, respectively. The cells were growth-arrested by placing them in serum-free quiescence medium, exposed to growth factors as indicated, and [^3H]thymidine incorporation assessed as previously described (Weiss and Nuccitelli, 1992, J. Biol. Chem. 267, 5608-5613).
This A431 data is in contrast with that obtained in a variety of VSM cell lines, where cell growth was inhibited by similar oligodeoxynucleotide concentrations in cell stimulated with both PDGF-BB and serum (FIG. 9d).

With `COc1cccc2c1C(=O)c1c(O)c3c(c(O)c1C2=O)C[C@@](O)(C(=O)CO)C[C@@H]3O[C@H]1C[C@H](N)[C@H](O)[C@H](C)O1` [Adriamycin, Adriamycin (doxorubicin), reference compound] the “growth inhibitory effect of Adriamycin (DNA synthesis)” value (A10 VSM cells; control oligonucleotide transfected VSM cells, 500 to 2000 ng/ml for 2 hours) was “plateaued”, the caspase-3 activation (caspase-3) was “little effect” and the “p21 levels after Adriamycin exposure” value (p21^Waf1/Cip1 [1]; VSM cells, Adriamycin 500 ng/ml) was “increased”.
With “5′-ATGTCCGATCCTGGTGATGTC-3′ (sense ATGTCCGATCCTGGTGATGTC; DNA, backbone not given here) [Sense p21Waf1/Cip1 control oligodeoxynucleotide, reference compound]” the “PMA-induced p21^Waf1/Cip1 levels” value (p21^Waf1/Cip1 [2]) was “no effect”, the “PDGF-stimulated DNA synthesis, dose/response” value (A10 VSM cells; A10 VSM cells, increasing oligodeoxynucleotide concentration up to 200 nM) was “no effect” and the “PMA-induced p21^Waf1/Cip1 levels” value (p21^Waf1/Cip1 [1]; A10 VSM cells, PMA stimulation up to 6 hours after transfection) was “no effect”.
In the case of “TGF-β: growth factor TGF-β1 obtained from Upstate Biotechnology”, the laminin secretion (laminin) is reported as “decrease laminin secretion at higher doses”, the “DNA synthesis in serum-starved cells” value (A10 VSM cells; A10 VSM cells, TGF-β 0.1 to 10 ng/ml for 24 hours) is reported as “significantly reduced” and the “inhibitory effect of TGF-β on DNA synthesis in transfected cells” value (A10 VSM cells; antisense or control transfected A10 VSM cells, 10% serum, TGF-β 10 ng/ml) is reported as “still present”. For the same compound, the fibronectin production (fibronectin) was “induced fibronectin production”.
`CCCCCCCCCCCCCC(=O)O[C@@H]1[C@@H](C)[C@@]2(O)[C@@H](C=C(CO)C[C@]3(O)C(=O)C(C)=C[C@@H]23)[C@@H]2C(C)(C)[C@]12OC(C)=O` [PMA, reference compound] was tested, and the “growth of A431 cells with PMA” value (A431 cells) was “significant growth inhibition” and the “p21^Waf1/Cip1 protein levels after PMA stimulation” value (p21^Waf1/Cip1 [1]; non-transfected VSM cells, PMA 100 ng/ml, between 2 and 6 hours) was “induced”.

From patent US20050043262A1, “Novel specific inhibitor of the cyclin kinase inhibitor p21Waf1/Cip1 and methods of using the inhibitor” (priority 2000, published 2005)
